Measurements published in patent US10307403B2, “Polymorphic forms and process” (GALECTO BIOTECH AB, priority 2015, dated 2019).
Blank lines part the entries; values can stand above or below the compound they belong to.

Key:
Type in all cases: physicochemical
[1] = Aerodynamic particle size determination (APSD) via New Generation Impactor (NGI); settings: 20 mg in size 3 HPMC capsule, Plastiape Monodose inhaler
Protocol: To compare in vitro performance of the different forms for use in inhalation products, an aerodynamic particle size determination (APSD) was performed via New Generation Impactor (NGI) for Form 5 material produced via microfluidization and the amorphous form produced via spray drying. These were compared with the APSD obtained from micronized Form 1 material. For each APSD test, 20 mg 3,3′-Dideoxy-3,3′-bis-[4-(3-fluorophenyl)-1H-1,2,3-triazol-1-yl]-1,1′-sulfanediyl-di-β-D-galactopyranoside was filled into a size 3 HPMC capsule and actuated using a Plastiape Monodose inhaler device.

[2] = Stability of micronized Form 1 under ICH conditions
Source text: There is no increase in impurities and both the particle size and crystalline form remain unchanged.

[3] = Solid form stability and moisture uptake
[4] = listed as Amorphous (Spray Drying)
[5] = listed as Form 5 (microfluidization)

Mean Mass Aerodynamic Diameter (MMAD) [1]: in the respirable range
Fine Particle Dose (FPD) [1, 4]: 11.8 mg
Fine Particle Fraction (FPF) [1, 4]: 91%
Mean Mass Aerodynamic Diameter (MMAD) [1, 4]: 1.7 μm
SMILES: OCC1O[C@@H](SC2O[C@H](CO)C(O)C(n3cc(-c4cccc(F)c4)nn3)[C@H]2O)C(O)C(n2cc(-c3cccc(F)c3)nn2)[C@H]1O (stereo partly drawn) [Amorphous, 3,3′-Dideoxy-3,3′-bis-[4-(3-fluorophenyl)-1H-1,2,3-triazol-1-yl]-1,1′-sulfanediyl-di-β-D-galactopyranoside]

Mean Mass Aerodynamic Diameter (MMAD) [1]: in the respirable range
Fine Particle Dose (FPD) ([1]; listed as Form 1 (micronized)): 7.4 mg
Fine Particle Fraction (FPF) ([1]; listed as Form 1 (micronized)): 77%
Mean Mass Aerodynamic Diameter (MMAD) ([1]; listed as Form 1 (micronized)): 2.6 μm
Appearance ([2]; 6 Months @ 40° C./75 RH): Conforms
Assay ([2]; 6 Months @ 40° C./75 RH): 97.2%
Particle Size D10 ([2]; 6 Months @ 40° C./75 RH): 0.50 μm
Particle Size D50 ([2]; 6 Months @ 40° C./75 RH): 1.97 μm
Particle Size D90 ([2]; 6 Months @ 40° C./75 RH): 4.68 μm
Polymorphism (crystalline form found) ([2]; 6 Months @ 40° C./75 RH): Form 1
Specified impurity DEX-IMP-284-B ([2]; 6 Months @ 40° C./75 RH): 0.89%
Specified impurity DEX-IMP-284-C ([2]; 6 Months @ 40° C./75 RH): 0.05%
Total Impurities ([2]; 6 Months @ 40° C./75 RH): 1.57%
Unspecified impurity 0.922RRT ([2]; 6 Months @ 40° C./75 RH): 0.12%
Unspecified impurity 1.057RRT ([2]; 6 Months @ 40° C./75 RH): 0.11%
Unspecified impurity 1.184RRT ([2]; 6 Months @ 40° C./75 RH): 0.34%
Water Content ([2]; 6 Months @ 40° C./75 RH): 5.2%
Appearance ([2]; 12 Months 25° C./60 RH): Conforms
Assay ([2]; 12 Months 25° C./60 RH): 97.7%
Particle Size D10 ([2]; 12 Months 25° C./60 RH): 0.51 μm
Particle Size D50 ([2]; 12 Months 25° C./60 RH): 1.84 μm
Particle Size D90 ([2]; 12 Months 25° C./60 RH): 4.29 μm
Polymorphism (crystalline form found) ([2]; 12 Months 25° C./60 RH): Form 1
Specified impurity DEX-IMP-284-B ([2]; 12 Months 25° C./60 RH): 0.89%
Specified impurity DEX-IMP-284-C ([2]; 12 Months 25° C./60 RH): 0.04%
Total Impurities ([2]; 12 Months 25° C./60 RH): 1.54%
Unspecified impurity 0.922RRT ([2]; 12 Months 25° C./60 RH): 0.12%
Unspecified impurity 1.057RRT ([2]; 12 Months 25° C./60 RH): 0.10%
Unspecified impurity 1.184RRT ([2]; 12 Months 25° C./60 RH): 0.34%
Water Content ([2]; 12 Months 25° C./60 RH): 4.4%
Overall stability conclusion (in words) ([2]; ICH conditions, Table 3A): stable both chemically and physically
Particle Size D10 ([2]; Initial): 0.56 μm
Polymorphism (crystalline form found) ([2]; Initial): Form 1
Unspecified impurity 1.057RRT ([2]; Initial): 0.08%
Unspecified impurity 1.184RRT ([2]; Initial): 0.34%
Water Content ([2]; Initial): 4.2%
Assay ([2]; Initial, criterion 95.0-105.0% w/w): 97.9%
Appearance ([2]; Initial, criterion white to off-white solid): Conforms
Specified impurity DEX-IMP-284-B ([2]; Initial, criterion ≤1% (a/a)): 0.90%
Specified impurity DEX-IMP-284-C ([2]; Initial, criterion ≤1% (a/a)): 0.03%
Unspecified impurity 0.922RRT ([2]; Initial, criterion ≤1% each (a/a)): 0.12%
Total Impurities ([2]; Initial, criterion ≤2.5% (a/a)): 1.54%
Particle Size D50 ([2]; Initial, target D50 ~2 μm): 2.37 μm
Particle Size D90 ([2]; Initial, target D90 ≤5 μm): 5.09 μm
Equilibrium water content after moisture pick-up ([3]; dried upon synthesis, then picks up moisture): 3-5%
SMILES: OC[C@H]1O[C@@H](S[C@@H]2O[C@H](CO)[C@H](O)[C@H](n3cc(-c4cccc(F)c4)nn3)[C@H]2O)[C@H](O)[C@@H](n2cc(-c3cccc(F)c3)nn2)[C@H]1O [Form 1, 3,3′-Dideoxy-3,3′-bis-[4-(3-fluorophenyl)-1H-1,2,3-triazol-1-yl]-1,1′-sulfanediyl-di-β-D-galactopyranoside]
Stability of the solid form (in words) [3]: stable and does not convert to the other forms over time

Mean Mass Aerodynamic Diameter (MMAD) [1]: in the respirable range
Fine Particle Dose (FPD) [1, 5]: 7.7 mg
Fine Particle Fraction (FPF) [1, 5]: 63%
Mean Mass Aerodynamic Diameter (MMAD) [1, 5]: 2.3 μm
Stability of the solid form (in words) [3]: stable
SMILES: OCC1O[C@@H](SC2O[C@H](CO)C(O)C(n3cc(-c4cccc(F)c4)nn3)[C@H]2O)C(O)C(n2cc(-c3cccc(F)c3)nn2)[C@H]1O (stereo partly drawn) [Form 5, 3,3′-Dideoxy-3,3′-bis-[4-(3-fluorophenyl)-1H-1,2,3-triazol-1-yl]-1,1′-sulfanediyl-di-β-D-galactopyranoside]
